Measured values: paper PMC9228152, “New Amino Naphthoquinone Derivatives as Anti-Trypanosoma cruzi Agents Targeting Trypanothione Reductase” (Pharmaceutics, 2022)
Read-outs that look alike come from different tables or passages of the source.

Key:
[1] = tested on: T. cruzi epimastigotes, NINOA strain; assay: Growth inhibition of T. cruzi epimastigotes, NINOA strain; type: cell-based; settings: Trypanosoma cruzi, 120 h, read-out: Epi NINOA IC50
Protocol: (§1) Epimastigotes from T. cruzi strains NINOA and INC-5 were cultured in BHI (brain heart infusion broth, 89%) axenic medium, as reported in [26], at an initial concentration of 1 × 10^6 parasites/mL, at 28 °C, supplemented with 10% foetal bovine serum and 1% sodium penicillin-streptomycin. […] On the last day, the absorbance of the cultures was measured and related to the control. All measurements were carried out in triplicate. No toxic effect was attributable to DMSO. Since parasite growth is exponential, the data were analysed according to a first order equation, and the respective growth constant (k), corresponding to the slope, was calculated for controls and parasites treated with different drug concentrations. From these measurements, percentage growth inhibition (%GI) and half-maximal inhibitory concentration (IC50) values were calculated.

[2] = tested on: T. cruzi epimastigotes, INC-5 strain; assay: Growth inhibition of T. cruzi epimastigotes, INC-5 strain; type: cell-based, Trypanosoma cruzi; settings: Trypanosoma cruzi, 120 h, read-out: Epi INC-5 IC50
Protocol: as §1

[3] = tested on: T. cruzi trypomastigotes, INC-5 strain; assay: microbe, parasite or virus in culture; type: cell-based; settings: Trypanosoma cruzi, read-out: Trypo INC-5 LC50 (half-maximal lytic concentration)
Protocol: (§2) Those compounds with the lowest IC50 values in the epimastigote studies of each strain were evaluated in trypomastigotes. For this purpose, bloodstream trypomastigotes of INC-5 and NINOA strains were used for peritoneal injection into 6−8-week-old CD1 mice. The peak of parasitemia was achieved after 4–6 weeks, at which time parasitised blood samples were obtained by cardiac puncture using sodium heparin as an anticoagulant and diluted to a concentration of 1 × 10^6 trypomastigotes/mL. 10 µL of each of the dilutions of the study compounds and Bzn, with these being placed in a 96-well plate, and 90 µL of infected blood was added, providing a final volume of 100 µL per well. The microplates were incubated at 4 °C for 24 h, and concentrations of 20 µM, 10 µM, and 5 µM of each compound were considered in these experiments. Each evaluation was performed in triplicate. Wells with untreated blood trypomastigotes were used as a negative lysis control and Bzn as a positive control. Then, the degree of lysis of trypomastigotes was determined by their reduction in number using an optical microscope according to the Brener–Pizzi method. For this purpose, 5 μL of blood was placed between a slide and a 13 × 13 coverslip. Mobile trypomastigotes were counted in 15 microscope fields at 40× magnification. Quantification of the degree of lysis for each case was expressed as a percentage considering the number of viable trypomastigotes with respect to the negative control. The half-maximal lytic concentration (LC50) was determined by linear regression. The experiments were carried out in accordance with the recommendations and approval of the local Ethics and Research Committee (Approval number: ENCB/CEI/078/2020).

[4] = tested on: T. cruzi trypomastigotes, NINOA strain; assay: microbe, parasite or virus in culture; type: cell-based; settings: Trypanosoma cruzi, read-out: Trypo NINOA LC50 (half-maximal lytic concentration)
Protocol: as §2

J774 murine macrophages = assay: Cytotoxicity on J774 macrophages (MTT); type: cell-based
Protocol: Cytotoxicity assays for the compounds selected for their trypanocidal activity were performed on J774 macrophage cells using the MTT method. For this purpose, 50,000 cells/well resuspended in RPMI medium and 2% foetal bovine serum were seeded in a 96-well plate and incubated for 24 h at 37 °C. […] After 24 h of incubation, the existing culture medium was replaced in the plate with fresh culture medium along with […] each of the compound dilutions (100 to 1.25 μM) and Bzn to a final volume of 100 µL per well. This plate was then incubated in 5% CO2 for 24 h at 37 °C. The controls used were cells with medium as a positive control and cells without culture medium as a negative control. After the 24 h incubation, the morphology of the macrophages was observed under a microscope and then the culture medium was removed again and the MTT solution (5 mg/mL) was added. After 1 h incubation at 37 °C, the absorbance at 570 nm was recorded on an Elisa Epoch reader. The following formula was used to calculate the % cytotoxicity: %cytotoxicity = (100 − (mean number of cells with treatment/cells without treatment) × 100).

[5] = epimastigotes, NINOA strain, five days, means of three independent experiments
[6] = epimastigotes, INC-5 strain, five days, means of three independent experiments
[7] = bloodstream trypomastigotes, INC-5 strain, 24 h at 4 °C
[8] = bloodstream trypomastigotes, NINOA strain, 24 h at 4 °C
[9] = Mus musculus, J774, 24 h, J774 macrophages, MTT, 24 h, read-out: J774 IC50

Row | Structure (SMILES) | IC50 [1, 5] [µM] | IC50 [2, 6] [µM] | LC50 [3, 7] [µM] | LC50 [4, 8] [µM] | further results
1 | O=C1C=C(N2CCN(C3CCCC3)CC2)C(=O)c2ccccc21 [Compound 2d, 2-(4-Cyclopentylpiperazin-1-yl)naphthalene-1,4-dione] | 1.12 ± 0.04 | 5.04 ± 0.26 | 87.3 ± 5.32 | > 100 | 
2 | O=C1C(Cl)=C(NCCN2CCOCC2)C(=O)c2ccccc21 [Compound 2b, 2-Chloro-3-((2-morpholinoethyl)amino)naphthalene-1,4-dione] | 1.1 ± 0.05 | 2.98 ± 0.2 | > 100 | > 100 | 
3 | O=C(NC1CCN(C2=C(Cl)C(=O)c3ccccc3C2=O)CC1)c1cc(F)cc(Cl)c1 [Compound 7g, 3-Chloro-N-(1-(3-chloro-1,4-dioxo-1,4-dihydronaphthalen-2-yl)piperidin-4-yl)-5-fluorobenzamide] | 3.55 ± 0.02 | 2.57 ± 0.04 | > 100 | > 100 | 
4 | O=C1C(Cl)=C(N2CCC(N3CCOCC3)CC2)C(=O)c2ccccc21 [Compound 2h, 2-Chloro-3-(4-morpholinopiperidin-1-yl)naphthalene-1,4-dione] | 6.4 ± 0.02 | 6.6 ± 0.08 |  |  | melting point: 145 to 146 °C
5 | O=C1C(Cl)=C(N2CCN(C3CCCC3)CC2)C(=O)c2ccccc21 [Compound 2e, 2-Chloro-3-(4-cyclopentylpiperazin-1-yl)naphthalene-1,4-dione] | 0.43 ± 0.15 |  | > 100 | > 100 | 
6 | O=C1C=C(NCCN2CCOCC2)C(=O)c2ccccc21 [Compound 2a, 2-((2-Morpholinoethyl)amino)naphthalene-1,4-dione] | 1.1 ± 0.12 | 3.06 ± 0.01 | > 100 | > 100 | 
7 | O=C1C=C(N2CCC(N3CCOCC3)CC2)C(=O)c2ccccc21 [Compound 2g, 2-(4-Morpholinopiperidin-1-yl)naphthalene-1,4-dione] | 7.05 ± 0.95 | 8.45 ± 0.35 |  |  | melting point: 151 to 153 °C
8 | O=C(NC1CCN(C2=C(Cl)C(=O)c3ccccc3C2=O)CC1)c1ccccc1Br [Compound 7a, 2-Bromo-N-(1-(3-chloro-1,4-dioxo-1,4-dihydronaphthalen-2-yl)piperidin-4-yl)benzamide] | 6.41 ± 0.02 | 2.46 ± 0.08 |  |  | melting point: 197 to 198 °C
9 | O=C1C(Br)=C(N2CCN(C3CCCC3)CC2)C(=O)c2ccccc21 [Compound 2f, 2-Bromo-3-(4-cyclopentylpiperazin-1-yl)naphthalene-1,4-dione] | 1.15 ± 0.09 | 1.46 ± 0.03 | > 100 | 97.9 ± 2.13 | 
10 | O=C1C(Br)=C(NCCN2CCOCC2)C(=O)c2ccccc21 [Compound 2c, 2-Bromo-3-((2-morpholinoethyl)amino)naphthalene-1,4-dione] | 1.14 ± 0.06 | 2.22 ± 0.04 | > 100 | > 100 | 
11 | O=C(NC1CCN(C2=C(Cl)C(=O)c3ccccc3C2=O)CC1)c1cccc(Cl)c1 [Compound 7c, 3-Chloro-N-(1-(3-chloro-1,4-dioxo-1,4-dihydronaphthalen-2-yl)piperidin-4-yl)benzamide] | 0.52 ± 0.04 | 1.14 ± 0.07 | > 100 | 68.4 ± 6.3 | IC50 (J774 murine macrophages; [9]): ~25 µM
12 | O=C(NC1CCN(C2=C(Cl)C(=O)c3ccccc3C2=O)CC1)c1cc([N+](=O)[O-])cc([N+](=O)[O-])c1 [Compound 7f, N-(1-(3-chloro-1,4-dioxo-1,4-dihydronaphthalen-2-yl)piperidin-4-yl)-3,5-dinitrobenzamide] |  |  |  |  | IC50 [1]: 0.99 ± 0.01 µM; IC50 [2]: 1.84 ± 0.06 µM; LC50 ([3]; 24 h): 98.6 ± 8.2 µM; LC50 ([4]; 24 h): 70.9 ± 7.31 µM; IC50 (J774 murine macrophages; Mus musculus, J774, 24 h, read-out: J774 IC50, J774 macrophages, MTT, 24 h): ~25 µM
13 | O=C(NC1CCN(C2=C(Cl)C(=O)c3ccccc3C2=O)CC1)c1ccc(CCl)cc1 [Compound 7d, N-(1-(3-chloro-1,4-dioxo-1,4-dihydronaphthalen-2-yl)piperidin-4-yl)-4-(chloromethyl)benzamide] | 1.25 ± 0.06 | 2.3 ± 0.11 | > 100 | > 100 | 
14 | O=C1C(Br)=C(N2CCC(N3CCOCC3)CC2)C(=O)c2ccccc21 [Compound 2i, 2-Bromo-3-(4-morpholinopiperidin-1-yl)naphthalene-1,4-dione] | 10.1 ± 0.05 | 1.74 ± 0.02 |  |  | melting point: 148 to 149 °C
15 | Cc1cc(C)cc(C(=O)NC2CCN(C3=C(Cl)C(=O)c4ccccc4C3=O)CC2)c1 [Compound 7e, N-(1-(3-chloro-1,4-dioxo-1,4-dihydronaphthalen-2-yl)piperidin-4-yl)-3,5-dimethylbenzamide] | 4.45 ± 0.06 | 5.6 ± 0.03 |  |  | melting point: 206 to 208 °C
16 | O=C(NC1CCN(C2=C(Cl)C(=O)c3ccccc3C2=O)CC1)c1ccc([N+](=O)[O-])cc1 [Compound 7b, N-(1-(3-chloro-1,4-dioxo-1,4-dihydronaphthalen-2-yl)piperidin-4-yl)-4-nitrobenzamide] | 0.77 ± 0.21 | 2.23 ± 0.06 | > 100 | 80.3 ± 4.03 | 
17 | O=C1C(Cl)=C(N2CCC(NC(=O)c3ccc(C(F)(F)F)cc3[N+](=O)[O-])CC2)C(=O)c2ccccc21 [Compound 7i, N-(1-(3-chloro-1,4-dioxo-1,4-dihydronaphthalen-2-yl)piperidin-4-yl)-2-nitro-4-(trifluoromethyl)benzamide] | 1.09 ± 0.01 | 3.35 ± 0.05 | > 100 | 90.5 ± 6.58 | 
18 | COc1ccc(C(=O)NC2CCN(C3=C(Cl)C(=O)c4ccccc4C3=O)CC2)cc1F [Compound 7h, N-(1-(3-chloro-1,4-dioxo-1,4-dihydronaphthalen-2-yl)piperidin-4-yl)-3-fluoro-4-methoxybenzamide] | 0.84 ± 0.11 | 1.35 ± 0.01 | 94.7 ± 5.21 | 78.6 ± 3.91 | IC50 (J774 murine macrophages; J774 macrophages, MTT, 24 h, read-out: J774 IC50): 22 µM; IC50 (J774 murine macrophages; [9]): ~25 µM
